Data as given in patent US5066580A, “Xanthene dyes that emit to the red of fluorescein” (priority 1990, dated 1991).
Like-named read-outs stand apart in the source and are kept apart here.

Legend:
[1] = Absorbance maximum and extinction coefficient; format: physicochemical; conditions: for red shift of absorbance maxima vs carboxy analogs: compared to carboxy analogs 1, 4 and 7
Description: First, the extinction coefficient of compounds 1-9 and 14 was determined. Stock solutions (5×10^-3 M) of each dye were made by dissolving the dye in two equivalents of 0.1 N NaOH and making up the volume with carbonate/bicarbonate buffer (0.16, 0.34 M, pH 9.5). The solution was diluted ([…]) in additional buffer (final pH 9.5-10) and the absorbance spectrum measured. A stock solution (1.2×10^-3 M) of Vita Blue was prepared in DMSO, diluted into citrate buffer (0.1 M, pH 5 2) to give a final concentration of 1.6×10^-5 M and the absorbance spectrum measured. A stock solution (8.2×10^-3 M) of VBDB was prepared in DMSO and diluted into pyrophosphate buffer (0.1 M, pH 7.2) to give a final concentration of 8.1×10^-5 M and the absorbance spectrum measured on a Beckman model DU-6UV visible spectrophotometer.
(§1) Finally, the spectral characteristics of compounds 1-9 was determined. The extinction coefficients and quantum yields or compounds 1-9 were determined at pH 9.5. The extinction coefficient and quantum yield of monoprotonated Vita Blue was also determined at pH 5.2. The extinction coefficient and the quantum yield of VBDB were determined at pH 7.2.

[2] = Fluorescence emission maximum and quantum yield; format: physicochemical; conditions: for red shift of emission maxima vs carboxy analogs: compared to carboxy analogs 1, 4 and 7; for effect of sulfo group on extinction coefficient and quantum yield: compared to carboxy analogs 1 and 7
Description: Second, quantum yields of compounds 1-9 and 14 were measured. Solutions (1×10^-6 M) of compounds 1-9 were prepared in carbonate/ bicarbonate buffer (pH 9.5). Fluorescence emission spectra were measured on a Perkin-Elmer MPF-2A fluorescence spectrophotometer in 3-mL disposable plastic cuvettes. The excitation wavelength was set 30 nm to the red of the maximum excitation wavelength and the emission spectra measured. The area under the emission spectrum was measured (F). The quantum yield (.PHI.) was determined using the following equation, F-kIo .PHI.εcb, where F is the fluorescence, k is a fluorimeter constant, Io is the light intensity at the exciting wavelength, ε is the extinction coefficient at the exciting wavelength, c is the concentration of the dye, and b is the pathlength of the cuvette. The value of k was determined for three different emission wavelength regions by using literature values of .PHI. and measuring the fluorescence of fluorescein (470-670 nm, .PHI.=0.92), eosin (500-700 nm, .PHI.=0.19) and allophycocyanin (Applied BioSystems, 600-800 nm, .PHI.=0.68). The value of Io was determined from a table that was generated by scanning the range of exciting wavelengths on the fluorescence spectrophotometer with the emission monochrometer open; a piece of white paper was placed in the sample holder to reflect the exciting light. The concentration of the dyes were 0.6-1.0 uM; this value in each case was below the concentration ([…]) required in order for the equation to be valid.
as §1

[3] = 470-670 nm (fluorescein), 500-700 nm (eosin), 600-800 nm (allophycocyanin); cited from earlier work
[4] = cited from earlier work
[5] = Absorbance titration of Vita Blue; format: physicochemical
Description: Absorbance titration of Vita Blue then was measured. To a plastic cuvette (3 mL) was added the following solutions: citrate buffer (0.1 mL, 0.1 M, pH 4.2), pyrophosphate buffer (0.1 mL, 0.1 M, pH 6.2), EPPS buffer (0.1 mL, 0.1 M, pH 8.4), water (2.6 mL), HCl solution (5 uL, 6 N) and Vita Blue solution (8 or 40 uL, […]). The final concentration of Vita Blue was 3.4×10^-6 or 1.7×10^-5 M. The initial pH was approximately 3. Aliquots of NaOH solution were added (1-3 uL, 4 N) and the pH and the absorbance spectrum from 700 to 400 nm measured.

[6] = Fluorescence emission spectra of Vita Blue at varying pH; format: physicochemical
Description: Fluorescence emission spectra of Vita Blue also was determined. To each of five plastic cuvettes (3 mL) were added one of the following buffered solutions (0.1 M): citrate buffer (pH 4.21), pyrophosphate buffer at three pH values (6.22, 7.21, 9.05), and EPPS buffer (pH 8.37). Vita Blue solution (5 uL, 1.25×10^-3 M) was added, and the fluorescence emission spectra from 450 to 650 nm was measured. The excitation wavelength was 540 nm.

human white blood cells = assay: Staining of lysed whole blood, fluorescence by flow cytometry; format: cell-based; conditions: 1 uM dye
Description: After characterizing the various xanthene dyes prepared in accordance with this invention, one of the dyes (VBDB) was used to stain cells. The ability of VBDB to stain cells was compared with BCECF-AM, a membrane permeable esterase substrate (Molecular Probes) and fluorescein diacetate (FDA). […] After incubation, the tube was centrifuged. This procedure specifically lyses red blood cells leaving the white cells intact and viable. The supernatant was removed and the white blood cells which remained were washed twice and resuspended in blood cell diluent (1 mL, Diagnostic Technology, Inc.). The cell concentration and the percentage of dead cells were ascertained by counting the cells manually using a fluorescent microscope and a hemacytometer; acridine orange and ethidium bromide were used to stain live and dead cells respectively.
Four samples of approximately 1.7×10^6 cells then were placed in polystyrene tubes. To each tube was added one of the following solutions (1 mL): FDA (1 uM) BCECF-AM (1 uM), VBDB (0.8 uM), or VBDB (8.0 uM). The dye solutions were prepared by diluting a stock solution of each dye (1-8 mM in DMSO) into blood cell diluent. The tubes were kept at room temperature for 30 minutes. The samples were washed three times and resuspended in blood cell diluent (1 mL).
A bandpass 530/30 emission filter was used for both FDA and BCECF-AM, while a bandpass 660/20 emission filter was used for VBDB. Data from 10,000 events were acquired from each of these samples immediately after staining, one hour after staining, and two hours after staining.
Referring to FIG. 2, VBDB, BCECF-AM and FDA were compared as vital dyes by staining lysed whole blood and examining the fluorescence by flow cytometry. […] Four samples of cells were incubated with BCECF AM (1 uM), FDA (1 uM) and VBDB (0.8 uM, 8.0 uM). The cells were analyzed immediately after staining (t=0), after one hour (t=1) and after two hours (t=2).
The data in FIG. 2 also was used to quantitate the "live" cells and the "dead" cells. […] It was assumed the live cells were those cells which retained the dye (the right peak) and that dead cells were those cells whose membranes had become leaky (the left peak). By setting the gate to the immediate left of the main peak, the "dead" cells to the left of the gate were counted.

[7] = pH 5.2 (monoprotonated Vita Blue)

O=C(O)c1ccccc1-c1c2ccc(=O)cc-2oc2cc(O)ccc12 [Compound 1, fluorescein]
Abs Max ([1]; pH 9.5): 491 nm | ε (extinction coefficient) ([1]; pH 9.5): 80000 M⁻¹ cm⁻¹ | EM Max ([2]; pH 9.5): 516 nm | Quantum Yield ([2]; pH 9.5, dianionic form): 0.92 | quantum yield, literature value [3]: 0.92 | Quantum Yield ([4]; background): 0.93 | difference of pKa2 and pKa3 ([4]; fluorescein and related compounds): 2.3 units

O=c1ccc2c(-c3ccccc3S(=O)(=O)O)c3ccc(O)cc3oc-2c1 [Compound 2, Sulfonefluorescein]
red shift of absorbance maxima vs carboxy analogs [1]: 6-14 nm | Abs Max ([1]; pH 9.5): 497 nm | ε (extinction coefficient) ([1]; pH 9.5): 78000 M⁻¹ cm⁻¹ | red shift of emission maxima vs carboxy analogs [2]: 1-5 nm | effect of sulfo group on extinction coefficient and quantum yield [2]: little effect | EM Max ([2]; pH 9.5): 517 nm | Quantum Yield ([2]; pH 9.5, dianionic form): 0.92

CN(C)c1ccc2c(-c3ccccc3C(=O)O)c3ccc(=O)cc-3oc2c1 [Compound 3, Rhodol]
Abs Max ([1]; pH 9.5): 522 nm | ε (extinction coefficient) ([1]; pH 9.5): 57000 M⁻¹ cm⁻¹ | EM Max ([2]; pH 9.5): 545 nm | Quantum Yield ([2]; pH 9.5, dianionic form): 0.20

O=C(O)c1ccccc1-c1c2c3ccccc3c(=O)cc-2oc2cc(O)c3ccccc3c12 [Compound 4, 1,2,7,8 dibenzofluorescein]
Abs Max ([1]; pH 9.5): 534 nm | ε (extinction coefficient) ([1]; pH 9.5): 81000 M⁻¹ cm⁻¹ | EM Max ([2]; pH 9.5): 565 nm | Quantum Yield ([2]; pH 9.5, dianionic form): 0.24

O=C(O)c1ccccc1-c1c2c3ccccc3c(=O)c(Br)c-2oc2c(Br)c(O)c3ccccc3c12 [Compound 5, 1,2,7,8-Dibenzo-4.5-dibromofluorescein]
excitation maxima compared to parent dyes [1]: at longer wavelengths | Abs Max ([1]; pH 9.5): 549 nm | ε (extinction coefficient) ([1]; pH 9.5): 24000 M⁻¹ cm⁻¹ | extinction coefficient and quantum yield compared to parent dyes [2]: lower than the parent dyes | EM Max ([2]; pH 9.5): 581 nm | Quantum Yield ([2]; pH 9.5, dianionic form): 0.05

O=c1cc2oc3cc(O)c4ccccc4c3c(-c3ccccc3S(=O)(=O)O)c-2c2ccccc12 [Compound 6, 1,2,7,8-Dibenzosulfonefluorescein]
red shift of absorbance maxima vs carboxy analogs [1]: 6-14 nm | Abs Max ([1]; pH 9.5): 541 nm | ε (extinction coefficient) ([1]; pH 9.5): 81000 M⁻¹ cm⁻¹ | red shift of emission maxima vs carboxy analogs [2]: 1-5 nm | quantum yield vs carboxy analog ([2]; compared to compound 4): twice the quantum yield | EM Max ([2]; pH 9.5): 567 nm | Quantum Yield ([2]; pH 9.5, dianionic form): 0.48

O=C(O)c1ccccc1-c1c2ccc3cc(O)ccc3c2oc2c1ccc1cc(=O)ccc12 [Compound 7, naphthofluorescein]
Abs Max ([1]; pH 9.5): 595 nm | ε (extinction coefficient) ([1]; pH 9.5): 44000 M⁻¹ cm⁻¹ | EM Max ([2]; pH 9.5): 660 nm | Quantum Yield ([2]; pH 9.5, dianionic form): 0.14

O=C(O)c1ccccc1-c1c2ccc3c(Br)c(O)ccc3c2oc2c1ccc1c(Br)c(=O)ccc12 [Compound 8, 4,10 Dibromonaphthofluorescein]
Abs Max ([1]; pH 9.5): 605 nm | ε (extinction coefficient) ([1]; pH 9.5): 32000 M⁻¹ cm⁻¹ | EM Max ([2]; pH 9.5): 682 nm | Quantum Yield ([2]; pH 9.5, dianionic form): 0.05

O=c1ccc2c(ccc3c(-c4ccccc4S(=O)(=O)O)c4ccc5cc(O)ccc5c4oc32)c1 [Compound 9]
excitation maxima compared to parent dyes [1]: at longer wavelengths | red shift of absorbance maxima vs carboxy analogs [1]: 6-14 nm | Abs Max [1, 7]: 524 nm | ε (extinction coefficient) [1, 7]: 13000 M⁻¹ cm⁻¹ | Abs Max ([1]; pH 9.5): 609 nm | ε (extinction coefficient) ([1]; pH 9.5): 36000 M⁻¹ cm⁻¹ | extinction coefficient and quantum yield compared to parent dyes [2]: lower than the parent dyes | separation of emission maxima of monoanionic and dianionic forms [2]: 100 nm | red shift of emission maxima vs carboxy analogs [2]: 1-5 nm | effect of sulfo group on extinction coefficient and quantum yield [2]: little effect | EM Max [2, 7]: 570 nm | Quantum Yield ([2]; pH 5.2, monoanionic form): 0.04 | EM Max ([2]; pH 9.5): 665 nm | Quantum Yield ([2]; pH 9.5, dianionic form): 0.15 | absorbance peak maximum (apparent dimer) ([5]; 1.7×10^-5 M, pH 3.10, 4.06 and 6.45): 600 nm | isobestic point, absorbance titration ([5]; 3.4×10^-6 M): approximately 540 nm | isobestic point, emission spectra ([6]; excitation 540 nm, varying pH): 630 nm | dual fluorescence ([6]; mono- and diprotonated forms): showed dual fluorescence

CC(=O)Oc1ccc2c(c1)Oc1cc(OC(C)=O)ccc1C21OC(=O)c2ccccc21 [FDA, fluorescein diacetate, reference compound]
retention of initial fluorescence by stained cells over time (human white blood cells): did not retain their initial fluorescence over time

O=C1OC2(c3ccccc31)c1cc(Br)c(O)c(Br)c1Oc1c2cc(Br)c(O)c1Br [eosin]
quantum yield, literature value [3]: 0.19

allophycocyanin
quantum yield, literature value [3]: 0.68
